Assay results: patent US9745335B2 (Blirt S.A., priority 2012, dated 2017)

Assays:
[1] = tested on: Saccharomyces cerevisiae ATCC 9763; experiment: antifungal activity in vitro, serial dilution in RPMI 1640; format: cell-based; settings: RPMI 1640, pH 7.0; for Antifungal activity IC50: Saccharomyces cerevisiae ATCC 9763 (first head over MIC and IC50); for Antifungal activity MIC: Saccharomyces cerevisiae ATCC 9763
Outline: (§1)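 Compounds are serially diluted in buffered RPMI 1640 (pH 7.0) per the M27-A2 broth dilution method for yeasts. Cell suspension absorbance is then measured at 531 nm. Dose–response plots of A531 against concentration give the activity.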

Candida krusei DSM 6128 = experiment: as above; format: cell-based
Outline: as §1

[2] = tested on: Candida tropicalis KKP 334; experiment: as above; format: cell-based
Outline: as §1

[3] = tested on: Candida lusitaniae DSM 70102; experiment: as above; format: cell-based
Outline: as §1

[4] = tested on: Candida albicans ATCC 10231; experiment: as above; format: cell-based
Outline: as §1

[5] = tested on: Candida glabrata DSM 11226; experiment: as above; format: cell-based
Outline: as §1

HepG2 cells = experiment: cytotoxic activity against mammalian cells in tissue culture (MTT); format: cell-based, human
Experimental: (§2) All media contained 100 μg/ml of penicillin G and streptomycin. 24-wells microplates containing appropriate medium were inoculated with the cells in amount of 1.2×10^4 cells/well and allowed to stand overnight. Next, tested compounds as solution in dimethylsulfoxide (DMSO) were added in volume of 10 μl (serial 2× dilutions). To control well 10 μl of DMSO was added. Microplates with cell suspensions were incubated for 120 h at temperature 37° C. at atmosphere of 95%/5% CO2. After incubation, to all wells 200 μl of solution of 3-(4,5-dimethyltiazole-2-yl)-2,5-diphenylotetrazole bromide (MTT) in PBS (4 mg/ml) was added and plates were further incubated for 4 h at 37° C. Next, to dissolve crystals of formazane 1 ml of DMSO was added and absorption of solutions was measured at the wavelength λ=540 nm (A540), using a microplates reader (Victor^3, Perkin-Wallac). […] From these graphs IC50 values were read, that is concentration of tested compound in the presence at which A540 value is half of A540 value measured in the control sample.

CCRF-CEM cells = experiment: as above; format: cell-based, human
Experimental: as §2

[6] = tested on: Candida albicans clinical strain Gu4; experiment: antifungal activity against MDR fungal strains and parents; format: cell-based; settings: C. albicans Gu4, fluconazole sensitive, parent strain for Gu5
Experimental: (§3) For the determination of antifungal activity in vitro we used method of serial dilution in buffered medium RPMI 1640, pH 7.0, in a 96-wells microplates, according to the standard procedure (National Committee for Clinical Laboratory Standards. Reference method for broth dilution antifungal susceptibility testing of yeast, approved standard, 2nd ed. M27-A2 vol. 22 Wayne, Pa., 2002). The optical density of cells suspension was measured using a microplates reader (Victor^3, Perkin-Elmer) at the wavelength λ=531 nm (A531). On the basis of obtained results the diagrams of relation between A531 values and concentration of examined compound were made.

[7] = tested on: Candida albicans clinical strain Gu5 (CaCdr1p, CaCdr2p); experiment: as above; format: cell-based; settings: C. albicans Gu5 (CaCdr1p, CaCdr2p), fluconazole-resistant
Experimental: as §3

[8] = tested on: Candida albicans clinical strain B3; experiment: as above; format: cell-based; settings: C. albicans B3, fluconazole sensitive, parent strain for B4
Experimental: as §3

[9] = tested on: Candida albicans strain STY31; experiment: as above; format: cell-based; settings: C. albicans STY31, 5674 derivative, deletion of CDR1 and CDR2
Experimental: as §3

[10] = tested on: Candida albicans clinical strain F2; experiment: as above; format: cell-based; settings: C. albicans F2, fluconazole sensitive, parent strain for F5
Experimental: as §3

[11] = tested on: Candida albicans clinical strain B4 (CaMdr1p); experiment: as above; format: cell-based; settings: C. albicans B4 (CaMdr1p), fluconazole-resistant
Experimental: as §3

[12] = tested on: Candida albicans clinical strain F5 (CaMdr1p); experiment: as above; format: cell-based; settings: C. albicans F5 (CaMdr1p), fluconazole-resistant
Experimental: as §3

[13] = tested on: Candida albicans strain STY7 (CaCdr1p); experiment: as above; format: cell-based; settings: C. albicans STY7 (CaCdr1p), 5674 derivative, deletion of CDR2
Experimental: as §3

[14] = tested on: Candida albicans strain 5674 (CaCdr1p, CaCdr2p); experiment: as above; format: cell-based; settings: C. albicans 5674 (CaCdr1p, CaCdr2p)
Experimental: as §3

Human erythrocytes = experiment: hemotoxicity determination (hemolytic activity); format: cell-based
Outline: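 Human erythrocytes (2×10^7/ml in saline) were incubated with serially diluted compound for 30 min at 37 °C and then centrifuged. Released haemoglobin was read at A540 against a 0.1% Triton X-100 full-lysis control. EH50 is the interpolated concentration giving 50% of the control A540.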

LLC-PK1 cells = experiment: cytotoxic activity against mammalian cells in tissue culture (MTT); format: cell-based, pig
Experimental: as §2

[15] = tested on: Candida dubliniensis CBS 7987; experiment: antifungal activity in vitro, broader spectrum; format: cell-based
Experimental: as §3
(§4) Obtained results are presented below in tables 2A and 2B.

[16] = tested on: Candida parapsilosis DSM 5784; experiment: antifungal activity in vitro, broader spectrum; format: cell-based
Experimental: as §3, §4

Candida arborea KKP 319 = experiment: antifungal activity in vitro, broader spectrum; format: cell-based
Experimental: as §3, §4

[17] = tested on: Candida quilliermondii DSM 11947; experiment: antifungal activity in vitro, broader spectrum; format: cell-based
Experimental: as §3, §4

[18] = tested on: Aspergillus niger LOCK E201; experiment: antifungal activity in vitro, broader spectrum; format: cell-based
Experimental: as §3, §4

Candida albicans SC 5314 = experiment: antifungal activity in vitro, broader spectrum; format: cell-based
Experimental: as §3, §4

[19] = tested on: Trichoderma viride LOCK E159; experiment: antifungal activity in vitro, broader spectrum; format: cell-based
Experimental: as §3, §4

[20] = tested on: Candida pseudotropicalis KKP 324; experiment: antifungal activity in vitro, broader spectrum; format: cell-based
Experimental: as §3, §4

[21] = tested on: Candida stellatoidea CBS 1905; experiment: antifungal activity in vitro, broader spectrum; format: cell-based
Experimental: as §3, §4

[22] = tested on: Candida lipolytica KKP 322; experiment: antifungal activity in vitro, broader spectrum; format: cell-based
Experimental: as §3, §4

| SMILES | Antifungal activity IC50 [1] | Antifungal activity MIC [1] | Antifungal activity MIC (Candida krusei DSM 6128) | Antifungal activity MIC [2] | Antifungal activity MIC [3] | Antifungal activity MIC [4] | Antifungal activity MIC [5] | IC50 (cytotoxic activity) (HepG2 cells) | IC50 (cytotoxic activity) (CCRF-CEM cells) | Antifungal activity MIC [6] | Antifungal activity MIC [7] | Antifungal activity MIC [8] | Antifungal activity MIC [9] | Antifungal activity MIC [10] | Antifungal activity MIC [11] | Antifungal activity MIC [12] | Antifungal activity MIC [13] | Antifungal activity MIC [14] | Hemotoxi EH50 (Human erythrocytes) | IC50 (cytotoxic activity) (LLC-PK1 cells) | further results |
| --- | --- | --- | --- | --- | --- | --- | --- | --- | --- | --- | --- | --- | --- | --- | --- | --- | --- | --- | --- | --- | --- |
| C[C@@H]1[C@H](O)[C@@H](C)/C=C/C=C/C=C/C=C/C=C/C=C/C=C/[C@H](O[C@@H]2O[C@H](C)[C@@H](O)[C@H](NC(=O)[C@H](N)Cc3cccnc3)[C@@H]2O)C[C@@H]2O[C@](O)(C[C@@H](O)C[C@@H](O)[C@H](O)CC[C@@H](O)C[C@@H](O)CC(=O)O[C@H]1C)C[C@H](O)[C@H]2C(=O)O [Compound A36, N-D-β-(pyridin-3-yl)alanylamphotericin B] | 0.53 µg/mL | 1 µg/mL | 4 µg/mL | 2 µg/mL | 2 µg/mL | 2 µg/mL | 4 µg/mL | >100 µg/mL | >100 µg/mL | 1 µg/mL | 4 µg/mL | 0.5 µg/mL | 0.25 µg/mL | 4 µg/mL | 4 µg/mL | 4 µg/mL | 0.5 µg/mL | 0.5 µg/mL | >100 µg/mL | >100 µg/mL | Antifungal activity MIC [15]: 1 µg/mL; Antifungal activity MIC [16]: 2 µg/mL; Antifungal activity MIC (Candida arborea KKP 319): 4 µg/mL; Antifungal activity MIC [17]: 1 µg/mL; Antifungal activity MIC [18]: 0.5 µg/mL; Antifungal activity MIC (Candida albicans SC 5314): 1 µg/mL; Antifungal activity MIC [19]: 4 µg/mL; Antifungal activity MIC [20]: 1 µg/mL; Antifungal activity MIC [21]: 2 µg/mL; Antifungal activity MIC [22]: 2 µg/mL |
| C[C@@H]1[C@H](O)[C@@H](C)/C=C/C=C/C=C/C=C/C=C/C=C/C=C/[C@H](O[C@@H]2O[C@H](C)[C@@H](O)[C@H](NC(=O)[C@@H](N)Cc3ccccc3)[C@@H]2O)C[C@@H]2O[C@](O)(C[C@@H](O)C[C@@H](O)[C@H](O)CC[C@@H](O)C[C@@H](O)CC(=O)O[C@H]1C)C[C@H](O)[C@H]2C(=O)O [Compound A30, N-L-phenylalanylamphotericin B] | 0.90 µg/mL | 2 µg/mL | 2 µg/mL | 2 µg/mL | 2 µg/mL | 2 µg/mL | 2 µg/mL | >100 µg/mL | >100 µg/mL | 1 µg/mL | 2 µg/mL | 0.5 µg/mL | 1 µg/mL | 2 µg/mL | 2 µg/mL | 4 µg/mL | 1 µg/mL | 0.5 µg/mL | >100 µg/mL | >100 µg/mL | Antifungal activity MIC [15]: 1 µg/mL; Antifungal activity MIC [16]: 2 µg/mL; Antifungal activity MIC (Candida arborea KKP 319): 4 µg/mL; Antifungal activity MIC [17]: 1 µg/mL; Antifungal activity MIC [18]: 2 µg/mL; Antifungal activity MIC (Candida albicans SC 5314): 1 µg/mL; Antifungal activity MIC [19]: 4 µg/mL; Antifungal activity MIC [20]: 1 µg/mL; Antifungal activity MIC [21]: 1 µg/mL; Antifungal activity MIC [22]: 2 µg/mL |
| C[C@@H]1[C@H](O)[C@@H](C)/C=C/C=C/C=C/C=C/C=C/C=C/C=C/[C@H](O[C@@H]2O[C@H](C)[C@@H](O)[C@H](NC(=S)NCCN(C)C)[C@@H]2O)C[C@@H]2O[C@](O)(C[C@@H](O)C[C@@H](O)[C@H](O)CC[C@@H](O)C[C@@H](O)CC(=O)O[C@H]1C)C[C@H](O)[C@H]2C(=O)O [Compound A28, N-{3-[2-(N,N-dimethylamino)ethyl]thioureidyl}amphotericin B] | 0.50 µg/mL | 1 µg/mL | 2 µg/mL | 1 µg/mL | 1 µg/mL | 1 µg/mL | 4 µg/mL | >100 µg/mL | >100 µg/mL | – | – | – | – | – | – | – | – | – | 81.73 µg/mL | >100 µg/mL | – |
